Results reported in patent US20150135829A1, “Levitation of Materials in Paramagnetic Ionic Liquids” (Presidents and Fellows of Harvard College, priority 2012, published 2015).

Columns and labels:
Format in all cases: physicochemical
[1] = Density and magnetic susceptibility of paramagnetic ionic liquids from MagLev levitation height of density standard beads; settings: for ρ (density) / χ (magnetic susceptibility): calculated from levitation height vs density of standard beads (Mirica et al. JACS 2009 method); for Accessible Density Range: range of densities that can be levitated in MagLev
Description: The density of a diamagnetic object was determined, from its levitation height, by suspending the object in a container filled with paramagnetic ionic liquid and placed the container between two NdFeB magnets oriented with like poles facing each other (see FIG. 5). Before using the paramagnetic ionic liquids as liquids for density based measurement using Maglev, the density and magnetic susceptibility of each paramagnetic ionic liquid was first determined (examples shown in FIG. 6). These properties can be calculated from a plot of the levitation height of objects with known density versus their density using previously disclosed methods. See, e.g., Mirica et al. JACS, 2009, 10049. See also, FIGS. 7-9, Table 1.

[2] = Glass transition temperature by differential scanning calorimetry (DSC); settings: cooling from 20° C. to −75° C. at 10° C./minute, then heating
Description: Except for [BMIM][FeCl4], [GlyC2][FeCl2][BMIM]2[MnCl4], all paramagnetic ionic liquids were synthesized by mixing appropriate equivalents of the halide starting materials in methanol and allowed to stir overnight. The solvent was removed in vacuo affording paramagnetic ionic liquids in nearly quantitative yield. The synthesis of [BMIM][FeCl4], [GlyC2][FeCl4] was carried out by following reported literature procedure (Satoshi Hayashi and Hiro-o Hamaguchi Chemistry Letters 2004, 33 (12) 1590-1591; Masanari Okuno and Hiro-o Hamaguchi Applied Physics Letters 2006, 89, 132506). Specifically, BMIM Cl and FeCl3 were mixed together in a 1:1 molar ratio and stirred under nitrogen atmosphere. After stirring for 10 minutes at room temperature, BMIM FeCl4 was obtained as a brown colored ionic liquid. This procedure was also used for BMIM MnCl4 except that the mixture was gently heated at 60° C. for 5 minutes. The synthesized paramagnetic ionic liquids were characterized using elemental analysis (Robertson Microlit Labs, NJ). […]
The glass transition temperatures and melting points of the synthesized paramagnetic ionic liquids were determined using differential scanning calorimetry (DSC) (see FIG. 3). […]

[3] = Thermal stability by thermal gravimetric analysis (TGA)
Description: The change in weight as a function of temperature was monitored by heating the sample from room temperature to 700° C. at a ramp rate of 10° C./min.
Except for [BMIM][FeCl4], [GlyC2][FeCl2][BMIM]2[MnCl4], all paramagnetic ionic liquids were synthesized by mixing appropriate equivalents of the halide starting materials in methanol and allowed to stir overnight. The solvent was removed in vacuo affording paramagnetic ionic liquids in nearly quantitative yield. The synthesis of [BMIM][FeCl4], [GlyC2][FeCl4] was carried out by following reported literature procedure (Satoshi Hayashi and Hiro-o Hamaguchi Chemistry Letters 2004, 33 (12) 1590-1591; Masanari Okuno and Hiro-o Hamaguchi Applied Physics Letters 2006, 89, 132506). Specifically, BMIM Cl and FeCl3 were mixed together in a 1:1 molar ratio and stirred under nitrogen atmosphere. After stirring for 10 minutes at room temperature, BMIM FeCl4 was obtained as a brown colored ionic liquid. This procedure was also used for BMIM MnCl4 except that the mixture was gently heated at 60° C. for 5 minutes. The synthesized paramagnetic ionic liquids were characterized using elemental analysis (Robertson Microlit Labs, NJ). The glass transition temperature (Tg), melting point (Tm), and decomposition temperatures (Tdec) of the synthesized paramagnetic ionic liquids were obtained respectively using dynamic scanning calorimetry (DSC), and thermal gravimetric analysis (TGA).
The thermal stability of the paramagnetic ionic liquids was measured using thermal gravimetric analysis (TGA). Most paramagnetic ionic liquids were thermally stable to at least 300° C. (see FIG. 4). The melting points (Tm), glass transition (Tg) and decomposition temperatures (Tdec) of the synthesized paramagnetic ionic liquids is provided below.

SMILES	ρ (density) [1]	χ (magnetic susceptibility) [1]	Accessible Density Range [1]	Tg (glass transition temperature) [2]	Tdec (decomposition temperature) [3]	magnetic susceptibility (χ) [1]
COC(=O)[C@H](C)[NH3+].COC(=O)[C@H](C)[NH3+].COC(=O)[C@H](C)[NH3+].[Cl][Ho-3]([Cl])([Cl])([Cl])([Cl])[Cl] [[AlaC1]3 [HoCl6]]	1.42 g/mL	9.70 ×10^−4	0.92 to 1.93 g/mL	–	–	–
CCCCn1cc[n+](C)c1.[Cl][Fe-]([Cl])([Cl])[Cl] [[BMIM] [FeCl4]]	1.39 g/mL	8.28 ×10^−4	0.96 to 1.83 g/mL	–	–	–
CCCC[n+]1ccn(C)c1C.CCCC[n+]1ccn(C)c1C.CCCC[n+]1ccn(C)c1C.[Cl][Dy-3]([Cl])([Cl])([Cl])([Cl])[Cl] [[BDMIM]3 [DyCl6]]	1.23 g/mL	3.49 ×10^−4	1.05 to 1.41 g/mL	–	–	–
CCCCCCCCCCCCCC[P+](CCCCCC)(CCCCCC)CCCCCC.CCCCCCCCCCCCCC[P+](CCCCCC)(CCCCCC)CCCCCC.[Cl][Mn-2]([Cl])([Cl])[Cl] [[PR4]2[MnCl4]]	–	–	–	−69 °C	–	–
CCCC[n+]1ccn(C)c1.CCCC[n+]1ccn(C)c1.[Cl][Mn-2]([Cl])([Cl])[Cl] [[BMIM]2 [MnCl4]]	1.24 g/mL	2.75 ×10^−4	1.09 to 1.37 g/mL	−40 °C	300 °C	–
CCCCCCCC[N+](C)(CCCCCCCC)CCCCCCCC.CCCCCCCC[N+](C)(CCCCCCCC)CCCCCCCC.CCCCCCCC[N+](C)(CCCCCCCC)CCCCCCCC.[Br][Ho-3]([Br])([Br])([Br])([Br])[Br] [[Aliq]3 [HoBr6]]	1.08 g/mL	1.37 ×10^−4	1.01 to 1.15 g/mL	–	250 °C	–
COC(=O)[C@H](C)[NH3+].[Cl][Fe-]([Cl])([Cl])[Cl] [[AlaC1] [FeCl4]]	1.52 g/mL	6.62 ×10^−4	1.15 to 1.93 g/mL	–	–	–
CCCC[n+]1ccn(C)c1.CCCC[n+]1ccn(C)c1.CCCC[n+]1ccn(C)c1.[Cl][Ho-3]([Cl])([Cl])([Cl])([Cl])[Cl] [[BMIM]3 [HoCl6]]	1.29 g/mL	5.40 ×10^−4	1.30 to 1.35 g/mL	–	–	–
CCCCCCCC[N+](C)(CCCCCCCC)CCCCCCCC.CCCCCCCC[N+](C)(CCCCCCCC)CCCCCCCC.CCCCCCCC[N+](C)(CCCCCCCC)CCCCCCCC.[Cl][Ho-3]([Cl])([Cl])([Cl])([Cl])[Cl] [[Aliq]3 [HoCl6]]	0.95 g/mL	1.94 ×10^−4	0.85 to 1.05 g/mL	–	–	–
COC(=O)[C@H](C)[NH3+].COC(=O)[C@H](C)[NH3+].COC(=O)[C@H](C)[NH3+].[Cl][Gd-3]([Cl])([Cl])([Cl])([Cl])[Cl] [[AlaC1]3 [GdCl6]]	1.31 g/mL	8.24 ×10^−4	0.89 to 1.74 g/mL	–	–	–
CCCCCCCC[N+](C)(CCCCCCCC)CCCCCCCC.CCCCCCCC[N+](C)(CCCCCCCC)CCCCCCCC.CCCCCCCC[N+](C)(CCCCCCCC)CCCCCCCC.[Cl][Gd-3]([Cl])([Cl])([Cl])([Cl])[Cl] [[Aliq]3 [GdCl6]]	0.97 g/mL	0.55 ×10^−4	0.95 to 0.99 g/mL	–	–	–
COC(=O)[C@H](C)[NH3+].COC(=O)[C@H](C)[NH3+].[Cl][Mn-2]([Cl])([Cl])[Cl] [[AlaC1]2 [MnCl4]]	1.24 g/mL	11.80 ×10^−4	0.63 to 1.86 g/mL	–	–	–
CCCCCCCC[N+](C)(CCCCCCCC)CCCCCCCC.CCCCCCCC[N+](C)(CCCCCCCC)CCCCCCCC.[Cl][Mn-2]([Cl])([Cl])[Cl] [[Aliq]2 [MnCl4]]	0.96 g/mL	1.85 ×10^−4	0.90 to 100 g/mL	–	–	–
COC(=O)[C@H](C)[NH3+].COC(=O)[C@H](C)[NH3+].COC(=O)[C@H](C)[NH3+].[Cl][Dy-3]([Cl])([Cl])([Cl])([Cl])[Cl] [[AlaC1]3 [DyCl6]]	1.41 g/mL	9.58 ×10^−4	0.91 to 1.91 g/mL	–	–	–
CCCCn1cc[n+](C)c1.CCCCn1cc[n+](C)c1.CCCCn1cc[n+](C)c1.[Cl][Dy-3]([Cl])([Cl])([Cl])([Cl])[Cl] [[BMIM]3 [DyCl6]]	1.37 g/mL	12.37 ×10^−4	0.72 to 2.01 g/mL	–	350 °C	12.4 ·10^−4
